Patent US20230203554A1, “PROCESS FOR REDUCING UNWANTED CULTURE BYPRODUCTS IN CELL CULTURE MEDIUM” (SAMSUNG BIOEPIS CO., LTD., priority 2016, published 2023)

Columns and labels:
CHO cells [1] = assay: Cell viability, Trypan blue exclusion method (Cedex HiRes), Examples 3 and 4; type: cell-based, Chinese hamster; conditions: for cell viability: 14 days after the culture
Protocol: (§1) Cells were prepared using the same method as that used in Example 1, and a glutamine-free and 2×HT-containing medium was added to the prepared cells. 4 mM of uridine (catalog No.: U3003, Sigma) or 8 mM of galactose (Catalog No.: G0750, Sigma) was added to the medium. The cells were cultured at 37° C. and 5% CO2, and the medium was replaced with a fresh medium every two days. Cells cultured in a glutamine-free medium were used as a negative control.
(§2) After about 14 days, viable cell density and cell viability were measured using a Cedex HiRes analyzer (Model No.: 05650216001, Roche) through a scanner-based imaging method and a Trypan blue exclusion method. The viable cell density (CHO cells/ml) of cells cultured in the presence of uridine and in the presence of galactose is illustrated in FIGS. 5A and 5B, respectively. In addition, the cell viability (%) of cells cultured in the presence of uridine and in the presence of galactose is illustrated in FIGS. 6A and 6B, respectively.
Cells were prepared using the same method as that used in Example 1, and a glutamine-free and 2×HT-containing medium was added to the prepared cells. 1 mM of magnesium (Catalog No.: M4880, Sigma) was added to the medium. The cells were cultured at 37° C. and 5% CO2, and the medium was replaced with a fresh medium every two days. Cells cultured in a glutamine-free medium were used as a negative control.
After about 14 days, viable cell density and cell viability were measured using a Cedex HiRes analyzer (Model No.: 05650216001, Roche) through a scanner-based imaging method and a Trypan blue exclusion method, respectively. The viable cell density (CHO cells/ml) and cell viability of the cells cultured in the presence of magnesium are illustrated in FIGS. 7 and 8, respectively.

CHO cells [2] = assay: Viable cell density, scanner-based imaging (Cedex HiRes), Examples 3 and 4; set-up: species or system Chinese hamster; conditions: 8 mM galactose added to glutamine-free 2×HT medium; FIG. 5B
Protocol: as §1, §2
Cells were prepared using the same method as that used in Example 1, and a glutamine-free and 2×HT-containing medium was added to the prepared cells. […]
After about 14 days, viable cell density and cell viability were measured using a Cedex HiRes analyzer (Model No.: 05650216001, Roche) through a scanner-based imaging method and a Trypan blue exclusion method, respectively. […]

[3] = tested on: Chinese hamster ovary (CHO) cells; conditions: 8 mM ammonia; cited from earlier work

## [Mg+2] [magnesium]
CHO cells [1]; 1 mM magnesium added to glutamine-free 2×HT medium
  cell viability: 91.5%

## O=C[C@H](O)[C@@H](O)[C@@H](O)[C@H](O)CO [galactose, reference compound]
CHO cells [2]
  viable cell density, versus medium without galactose: no significant difference
CHO cells [1]; 8 mM galactose added to glutamine-free 2×HT medium, FIG. 6B
  cell viability (printed: viable cell density), versus medium without galactose: no significant difference

## N [ammonia]
[3]
  inhibition of cell growth: 50%

## O=c1ccn([C@@H]2O[C@H](CO)[C@@H](O)[C@H]2O)c(=O)[nH]1 [uridine]
CHO cells [1]; 4 mM uridine added to glutamine-free 2×HT medium
  cell viability: 94.6%
